From US9399635B2, “Pyrazole derivative” (GREEN TECH CO., LTD., priority 2011, dated 2016)

Row | melting point [°C] | SMILES
1 | 133 to 141 | COc1cc(OCc2ccncc2)ccc1/C=C/c1cc(/C=C/c2ccc3[nH]ccc3c2)[nH]n1 [Example 45, 3-[(1E)-2-(1H-indol-5-yl)ethenyl]-5-[(1E)-2-[2-methoxy-4-(4-pyridylmethoxy)phenyl]ethenyl]-1H-pyrazole]
2 | 143 to 148 | Brc1cc(N2CCOCC2)ccc1/C=C/c1cc(/C=C/c2ccc3cc[nH]c3c2)[nH]n1 [Example 71, 3-[(1E)-2-[2-bromo-4-(morpholin-4-yl)phenyl]ethenyl]-5-[(1E)-2-(1H-indol-6-yl)ethenyl]-1H-pyrazole]
3 | 103 to 118 | COc1cc(OCc2ccncc2)ccc1/C=C/c1cc(/C=C/c2ccc3cc[nH]c3c2)[nH]n1 [Example 47, 3-[(1E)-2-(1H-indol-6-yl)ethenyl]-5-[(1E)-2-[2-methoxy-4-(4-pyridylmethoxy)phenyl]ethenyl]-1H-pyrazole]
4 | 231.1 to 232.1 | COc1cc(OCc2ccccn2)ccc1/C=C/c1cc(/C=C/c2cc3ccccc3s2)[nH]n1 [Example 34, 3-[(1E)-2-(benzothiophen-2-yl)ethenyl]-5-[(1E)-2-[2-methoxy-4-(2-pyridylmethoxy)phenyl]ethenyl]-1H-pyrazole]
5 | 198 to 201 | C(=C\c1cc(/C=C/c2c[nH]c3ccccc23)[nH]n1)/c1cccc(OCc2ccccn2)c1 [Example 13, 3-[(1E)-2-(1H-indol-3-yl)ethenyl]-5-[(1E)-2-[3-(2-pyridylmethoxy)phenyl]ethenyl]-1H-pyrazole]
6 | > 300 | CC(=O)Nc1ccc(/C=C/c2cc(/C=C/c3ccc4cc[nH]c4c3)[nH]n2)cc1 [Example 55, 3-[(1E)-2-[4-(acetylamino)phenyl]ethenyl]-5-[(1E)-2-(1H-indol-6-yl)ethenyl]-1H-pyrazole]
7 | 236 to 238 | C(=C\c1cc(/C=C/c2ccc3cc[nH]c3c2)[nH]n1)/c1ccc(N2CCOCC2)cc1 [Example 103, 5-[(1E)-2-(1H-indol-6-yl)ethenyl]-3-[(1E)-2-(4-morpholinophenyl)ethenyl]-1H-pyrazole]
8 | 109 to 114 | COc1c(/C=C/c2cc(/C=C/c3ccc4cc[nH]c4c3)[nH]n2)cccc1OCc1ccccn1 [Example 22, 3-[(1E)-2-(1H-indol-6-yl)ethenyl]-5-[(1E)-2-[2-methoxy-3-(2-pyridylmethoxy)phenyl]ethenyl]-1H -pyrazole]
9 | 205 to 213 | COc1cc(OCc2ccccn2)ccc1/C=C/c1cc(/C=C/c2ccc3nccnc3c2)[nH]n1 [Example 32, 3-[(1E)-2-[2-methoxy-4-(2-pyridylmethoxy)phenyl]ethenyl]-5-[(1E)-2-(quinoxalin-6-yl)ethenyl]-1H-pyrazole]
10 | 211 to 214 | C(=C\c1cc(/C=C/c2ccc3cc[nH]c3c2)[nH]n1)/c1ccc(OCc2ccccn2)cc1 [Example 16, 3-[(1E)-2-(1H-indol-6-yl)ethenyl]-5-[(1E)-2-[4-(2-pyridylmethoxy)phenyl]ethenyl]-1H-pyrazole]
11 | 182 to 187 | COc1cc(OCc2ccccn2)ccc1/C=C/c1cc(/C=C/c2ccc3ccn(C(C)=O)c3c2)[nH]n1 [Example 73, 3-[(1E)-2-(1-acetyl-1H-indol-6-yl)ethenyl]-5-[(1E)-2-[2-methoxy-4-(2-pyridylmethoxy)phenyl]ethenyl]-1H-pyrazole]
12 | 201 to 206 | COc1cc(OCc2ccncc2)ccc1/C=C/c1cc(/C=C/c2cccc3cc[nH]c23)[nH]n1 [Example 51, 3-[(1E)-2-(1H-indol-7-yl)ethenyl]-5-[(1E)-2-[2-methoxy-4-(4-pyridylmethoxy)phenyl]ethenyl]-1H-pyrazole]
13 | 212 to 214 | COc1cc(OCc2ccccn2)ccc1/C=C/c1cc(/C=C/c2ccc3ccn(S(C)(=O)=O)c3c2)[nH]n1 [Example 74, 3-[(1E)-2-(1-methanesulfonyl-1H-indol-6-yl)ethenyl]-5-[(1E)-2-[2-methoxy-4-(2-pyridylmethoxy)phenyl]ethenyl]-1H-pyrazole]
14 | 122 to 129 | COc1cc(OCc2cccnc2)ccc1/C=C/c1cc(/C=C/c2cccc3cc[nH]c23)[nH]n1 [Example 50, 3-[(1E)-2-(1H-indol-7-yl)ethenyl]-5-[(1E)-2-[2-methoxy-4-(3-pyridylmethoxy)phenyl]ethenyl]-1H-pyrazole]
15 | 194 to 199 | COc1cc(O[C@@H]2O[C@H](CO)[C@@H](O)[C@H](O)[C@H]2O)ccc1/C=C/c1cc(/C=C/c2ccc3cc[nH]c3c2)[nH]n1 [Example 29, 3-[(1E)-2-(1H-indol-6-yl)ethenyl]-5-[(1E)-2-[4-[(β-D-glucopyranosyl)oxy]-2-methoxyphenyl]ethenyl]-1H-pyrazole]
16 | 211 to 214 | COc1ccc(COc2ccc(/C=C/c3cc(/C=C/c4ccc5cc[nH]c5c4)[nH]n3)c(OC)c2)cc1 [Example 68, 3-[(1E)-2-(1H-indol-6-yl)ethenyl]-5-[(1E)-2-[2-methoxy-4-(4-methoxybenzyloxy)phenyl]ethenyl]-1H-pyrazole]
17 | 113 to 120 | COc1cc(OCc2ccccn2)ccc1/C=C/c1cc(/C=C/c2ccc3[nH]nnc3c2)[nH]n1 [Example 30, 3-[(1E)-2-(1H-benzotriazol-5-yl)ethenyl]-5-[(1E)-2-[2-methoxy-4-(2-pyridylmethoxy)phenyl]ethenyl]-1H-pyrazole]
18 | 224 to 227 | CN(C)c1ccc(/C=C/c2cc(/C=C/c3ccc4cc[nH]c4c3)[nH]n2)cc1 [Example 105, 3-[(1E)-2-(4-dimethylaminophenyl)ethenyl]-5-[(1E)-2-(1H-indol-6-yl)ethenyl]-1H-pyrazole]
19 | 248 to 255 | C(=C\c1cc(/C=C/c2ccccc2-c2cccnc2)n[nH]1)/c1ccc2cc[nH]c2c1 [Example 59, 3-[(1E)-2-(1H-indol-6-yl)ethenyl]-5-[(1E)-2-[2-(3-pyridyl)phenyl]ethenyl]-1H-pyrazole]
20 | 98 to 104 | COc1cc(OCc2ccccn2)ccc1/C=C/c1cc(/C=C/c2ccc3[nH]ccc3c2)[nH]n1 [Example 40, 3-[(1E)-2-(1H-indol-5-yl)ethenyl]-5-[(1E)-2-[2-methoxy-4-(2-pyridylmethoxy)phenyl]ethenyl]-1H-pyrazole]
21 | 121 to 133 | COc1ccc(/C=C/c2cc(/C=C/c3ccc4cc[nH]c4c3)[nH]n2)c(OC)c1 [Example 54, 3-[(1E)-2-(2,4-dimethoxyphenyl)ethenyl]-5-[(1E)-2-(1H-indol-6-yl)ethenyl]-1H-pyrazole]
22 | 108 to 113 | COc1cc(OCc2ccccn2)ccc1/C=C/c1cc(/C=C/c2cccc3[nH]ccc23)[nH]n1 [Example 39, 3-[(1E)-2-(1H-indol-4-yl)ethenyl]-5-[(1E)-2-[2-methoxy-4-(2-pyridylmethoxy)phenyl]ethenyl]-1H-pyrazole]
23 | 137 to 142 | COc1cc(Br)c(/C=C/c2cc(/C=C/c3ccc4cc[nH]c4c3)[nH]n2)cc1O [Example 60, 3-[(1E)-2-(2-bromo-5-hydroxy-4-methoxyphenyl)ethenyl]-5-[(1E)-2-(1H-indol-6-yl)ethenyl]-1H-pyrazole]
24 | 102 to 104 | CCN(CC)c1ccc(/C=C/c2cc(/C=C/c3ccc4cc[nH]c4c3)[nH]n2)c(OCCN2CCCCC2)c1 [Example 97, 3-[(1E)-2-[4-diethylamino-2-[2-(1-piperidyl)ethoxy]phenyl]ethenyl]-5-[(1E)-2-(1H-indol-6-yl)ethenyl]-1H-pyrazole]
